We go through 1 molecule from patent publication US11135224B2, “Methods of sensitizing estrogen receptor positive (ER+) breast cancer cells to endocrine therapy” (New York University, priority 2018, dated 2021).

Structures are written as SMILES.

The subject of one assay is RUNX2 protein. The experiment in a line: RUNX2 protein immunoblot after CGP57380. Format: cell-based, human. As to conditions: TamS and TamR cells, treated for 6 hours vs untreated. The protocol:
The average of three studies is shown. The immunoblot is representative of three independent studies. […] Equal amounts of RNA were quantified by RT-qPCR and normalized to GAPDH using the −ΔΔCt method. An average of three studies is shown. […] Equal protein amounts were immunoblotted as shown. eEF2 was used as a loading control. […] Cells were treated with DMSO and 1 μM4-OHT and silenced for Runx2 or nonsilencing (NS). The results of three independent experiments are shown. […] Lines represent validated and predicted interactions. […] (**)P<0.01; (***)P<0.001 by t-test.
Immunoblot Studies: In brief, cells were lysed in NP-40 buffer (50 mM HEPES, pH 7.0, 150 mM NaCl, 2 mM EDTA, 25 mM NaF, 25 mM β-glycerophosphate, 2 mM Na3VO4, 1% IGEPAL, and Complete Mini protease inhibitor cocktail tablet+/−EDTA; Roche) or RIPA lysis buffer (1% Triton X-100, 1% sodium deoxycholate, 0.1% SDS, 150 mM NaCl, 50 mM Tris, pH 7.4, 2 mM Na3VO4, 25 mM β-glycerophosphate, 15 mM NaF, and complete protease inhibitor mix; Roche) and lysate cleared by centrifugation at 13,000 rpm for 10 minutes at 4° C. Lysate protein concentration was determined for each sample using BCA assay. […] Quantitation was performed by determination of the integrated density of the bands using ImageJ software.
The biological functions of mRNAs identified as highly eIF4E-dependent in tamoxifen-resistant cells were next assessed. […]

In another assay the test system is Runx2 mRNA. The experiment in a line: Runx2 mRNA levels (RT-qPCR) after CGP57380. Format: cell-based, human. As to conditions: treated vs untreated cells. The protocol: Quantitative Real-Time PCR (RT-qPCR) and Analysis: RNA was extracted using Trizol as per the manufacturer's instructions. One microgram of RNA was used for reverse transcription reaction using Promega GoScript, as per the manufacturer's instructions. qRT-PCR was completed using iTaq Universal 2× SYBR Green qPCR master mix (Bio-Rad) and an Applied Biosystems 7500 Fast RT-PCR machine as per the manufacturers' instructions. Fold change was calculated using the 2^−ΔΔCt method.
The biological functions of mRNAs identified as highly eIF4E-dependent in tamoxifen-resistant cells were next assessed. Of these, Runx2 was particularly notable because it encodes a protein with a number of activities that could play a role in tamoxifen resistance, as it is an important inhibitor of estrogen signaling and stimulates oncogenic pathways. […] It was also determined whether Runx2 mRNA requires eIF4E S209 phosphorylation by Mnk1. Cells were untreated or treated with CGP57380, and Runx2 mRNA and protein levels were determined.

As to `Nc1ncnc2n[nH]c(Nc3ccc(F)cc3)c12` [CGP57380], the RUNX2 protein levels entry in the assay with RUNX2 protein is “reduced more than threefold”. Further, the “Runx2 mRNA levels” value in the assay on Runx2 mRNA is recorded as “no statistically significant difference”.
